Values quoted from earlier work as cited in US5922313A, “Antibacterial composition” (Bio-Safe Enterprises, Inc., priority 1998, dated 1999).

Legend:
[1] = system: hepatitis B
[2] = system: HIV

nonylphenol thoxylate
virus killing [1]: effective in killing hepatitis B and HIV viruses
virus killing [2]: effective in killing hepatitis B and HIV viruses
